Test results from patent publication US20210283199A1 (priority 2020, published 2021).
“Also recorded” adds a separate entry of the source.

What was measured:
Format in all cases: cell-based, Clostridium perfringens
[1] = system: C. perfringens strain 4.6
[2] = system: C. perfringens strain 4.6; remark: listed apart in the source
agrD gene = system: agrD gene
netB gene = system: netB gene
[3] = system: perfringolysin O (pfoA) toxin secreted by C. perfringens CP4.6
C. perfringens CP4.6 = system: C. perfringens CP4.6

Substance: fengycin
- biofilm formation [1]: inhibited the ability of the organism to form biofilm
- cell growth (cell count, cfu/ml) [2]: did not interfere and had minimal effect on cell growth
- expression of agrD gene (agrD gene): downregulated
- lowest concentration that downregulates expression of agrD (agrD gene): 0.1 ppm
- expression of netB gene (netB gene): downregulated
- lowest concentration that downregulates expression of netB (netB gene): 0.1 ppm
- hemolysis activity (zone of clearing) [3]: reduced significantly; also recorded: completely inhibited
- C. perfringens cell growth (planktonic cell count) (C. perfringens CP4.6): did not interfere and had minimal effect on C. perfringens cell growth
